Measurements published in paper PMC9329436, “Optimization of the 4-anilinoquin(az)oline scaffold as epidermal growth factor receptor (EGFR) inhibitors for chordoma utilizing a toxicology profiling assay platform” (Scientific Reports, 2022).
pIC50: −log10 of the molar value.

Legend:
[1] = system: WS1 human fibroblast cell line; assay: Cell viability assay, WS1 toxicity control; format: cell-based; conditions: n = 4, nonspecific toxicity control
Method in brief: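 Patient-derived chordoma lines and WS1 fibroblasts seeded in 384-well plates, dosed in quadruplicate 24 h after plating.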

VEGFR2 = VEGFR2 (Homo sapiens, UniProt P35968); assay: 33PanQinase activity assay; format: biochemical; conditions: 10 μM
VEGFR2, sequence (P35968 20-1356): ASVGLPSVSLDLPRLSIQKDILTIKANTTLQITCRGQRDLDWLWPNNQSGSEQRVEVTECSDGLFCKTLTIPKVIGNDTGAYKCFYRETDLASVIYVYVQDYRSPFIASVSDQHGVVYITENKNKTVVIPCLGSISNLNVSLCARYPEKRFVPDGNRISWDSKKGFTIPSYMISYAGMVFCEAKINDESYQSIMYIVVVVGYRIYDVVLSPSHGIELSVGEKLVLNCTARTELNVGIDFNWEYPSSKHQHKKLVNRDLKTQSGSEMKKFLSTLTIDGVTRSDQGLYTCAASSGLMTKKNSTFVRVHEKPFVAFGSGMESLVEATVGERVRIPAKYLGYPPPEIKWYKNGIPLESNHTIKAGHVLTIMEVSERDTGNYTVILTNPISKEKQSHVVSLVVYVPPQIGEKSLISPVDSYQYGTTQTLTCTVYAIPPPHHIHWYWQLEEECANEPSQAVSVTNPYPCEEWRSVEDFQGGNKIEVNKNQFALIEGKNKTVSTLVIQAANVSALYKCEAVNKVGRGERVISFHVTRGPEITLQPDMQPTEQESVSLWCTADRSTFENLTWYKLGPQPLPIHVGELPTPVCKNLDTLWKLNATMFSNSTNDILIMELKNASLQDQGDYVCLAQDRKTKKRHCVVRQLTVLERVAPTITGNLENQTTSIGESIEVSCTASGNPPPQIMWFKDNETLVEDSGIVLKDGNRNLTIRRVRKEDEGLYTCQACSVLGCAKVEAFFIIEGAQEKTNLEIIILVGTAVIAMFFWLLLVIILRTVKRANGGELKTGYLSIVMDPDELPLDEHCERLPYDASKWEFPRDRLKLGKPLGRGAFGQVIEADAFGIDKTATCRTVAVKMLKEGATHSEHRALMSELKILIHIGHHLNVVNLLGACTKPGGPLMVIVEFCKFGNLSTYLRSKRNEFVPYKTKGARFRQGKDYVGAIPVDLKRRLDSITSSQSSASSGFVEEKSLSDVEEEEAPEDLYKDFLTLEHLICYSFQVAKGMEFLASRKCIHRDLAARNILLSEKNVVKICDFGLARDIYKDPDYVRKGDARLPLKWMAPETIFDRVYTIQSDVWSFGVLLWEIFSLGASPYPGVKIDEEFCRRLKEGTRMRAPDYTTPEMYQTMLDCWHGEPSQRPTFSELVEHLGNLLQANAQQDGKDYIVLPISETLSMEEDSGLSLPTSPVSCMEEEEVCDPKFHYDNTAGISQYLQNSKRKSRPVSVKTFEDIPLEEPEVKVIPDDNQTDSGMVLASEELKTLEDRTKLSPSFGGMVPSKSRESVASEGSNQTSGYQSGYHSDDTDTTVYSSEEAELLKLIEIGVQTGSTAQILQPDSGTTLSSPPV
Source text: Table S4. Profiling of two compounds at two concentrations against 320 wild-type protein kinases; singlicate measurement; Residual activities (% of control).

Question: `C#Cc1cc(Nc2ncnc3cc(I)ccc23)ccc1Cl` [Compound 41] was tested. Which pIC50 [1] did it give?
Answer: Its pIC50 is 4.44.

Question: With `C#Cc1cc(Nc2ncnc3cc(OC)c(OC)cc23)ccc1Cl` [Compound 45] as the compound, how does the pIC50 [1] read?
Answer: Its pIC50 is < 4.00.

Question: What about the VEGFR2 inhibition (VEGFR2) of the same compound?
Answer: The VEGFR2 inhibition was > 50%.
